# Test results from EPA's ToxValDB 9.5 (doi:10.2903/j.efsa.2006.79r).
# How the values were obtained:
# Coturnix japonica = conditions: acute; oral; mortality
# Anas platyrhynchos = conditions: short-term; duration: 5 days; oral; feed; mortality
# Tagia sp. = conditions: mortality
# Apis mellifera = conditions: acute; duration: 48 hours; dermal; mortality
# Daphnia magna = conditions: chronic/long-term; reproduction
# Colinus virginianus = conditions: reproduction developmental
# Rattus norvegicus = conditions: acute; oral; mortality
# Canidae = conditions: subchronic; duration: 90 days; oral; diet; Dog Other; clinical signs
# Aphidius rhopalosiphi = assay: LR50; higher = less toxic; conditions: acute; duration: 48 hours; mortality
structure (smiles),measurement,setting,value
CNC(=O)Oc1cc(C)c(SC)c(C)c1 [Methiocarb],LD50,Coturnix japonica,5 mg/kg
same,LC50,Anas platyrhynchos,1070 mg/kg
same,LC50,Tagia sp.; acute,1330 mg/kg
same,NOEC,Tagia sp.; chronic/long-term,0.32 mg/kg
same,LD50,Apis mellifera,0.23 µg/piece
same,LC50,"Oncorhynchus mykiss; acute, mortality",0.65 µg/mL
same,NOEC,"Oncorhynchus mykiss; chronic/long-term, growth",0.05 mg/L
same,NOEC,Daphnia magna,0.0001 mg/L
same,NOEC,Colinus virginianus,4.51 mg/kg-day
same,LD50,Rattus norvegicus,19 mg/kg
same,NOAEL,Canidae,1.33 mg/kg-day
same,LR50,Aphidius rhopalosiphi,0.47 g/ha
